Measurements reported in ChEMBL document CHEMBL1126353, “Substituted benzamides with conformationally restricted side chains. 4. Hetero-azabicyclo[x.y.0] derivatives as gastric prokinetic agents” (1992).
Calls of active or inactive are those of the source. The rule behind the calls is not given here.

What was measured:
Rattus norvegicus = assay: Prokinetic activity expressed as ability to increase intragastric pressure in rat on subcutaneous administration; format: functional
[1] = Ratio of ability to inhibit apomorphine induced climbing to that of increasing intragastric pressure in rats; format: functional
[2] = target: Dopamine receptor (Rattus norvegicus) (UniProt P25115+P19020+P30729+P18901+P61169); assay: Dopamine receptor antagonist activity expressed as ability to inhibit apomorphine-induced climbing behavior in rat on subcutaneous administration.; format: functional, organism-based
Canis familiaris = assay: Compound was tested for inhibiting apomorphine-induced emesis in dog up to a dose of 10 mg/kg when administered subcutaneously; E - compound found effective; format: functional, organism-based; design: dose 10 mg/kg; conditions: Canis lupus familiaris

Compound | Activity (Rattus norvegicus) [mg/kg] | Ratio [1] | ED50 [2] [mg/kg] | Activity (Canis familiaris)
COc1cc(N)c(Cl)cc1C(=O)NC1CCN2CCOCC2C1 (stereo in doubt; 15) [listing 1 of 2 here] | 1 | 30 |  | 
COc1cc(N)c(Cl)cc1C(=O)NC1CN2CCCCN2C1 | 0.5 | 20 | 10 | 
CCN(CC)CCNC(=O)c1cc(Cl)c(N)cc1OC [METOCLOPRAMIDE] | 1 | 0.8 | 0.8 | 
COc1cc(N)c(Cl)cc1C(=O)NC1CCCN2CCOCC12 (stereo in doubt; 18) [listing 1 of 2 here] | 1 |  |  | 
COc1cc(N)c(Cl)cc1C(=O)NC1CCN2CC[S+]([O-])CC2C1 (stereo in doubt; 22) [listing 1 of 2 here] |  |  |  | Active
COc1cc(N)c(Cl)cc1C(=O)NC1CN2CC=CCN2C1 | >1 |  | > 50 | 
COc1cc(N)c(Cl)cc1C(=O)NC1CCN2CC[S+]([O-])CC2C1 (stereo in doubt; 21) [listing 1 of 2 here] | 5 |  |  | 
COc1cc(N)c(Cl)cc1C(=O)NC1CCN2C(C)CCCC2C1 (stereo not drawn) [BRL-20627] | 0.5 | 50 | 25 | 
COc1cc(N)c(Cl)cc1C(=O)NC1CCN2CCCCN2C1 (stereo not drawn) | 1 | 30 | 30 | 
COc1cc(N)c(Cl)cc1C(=O)NC1CCN2CCOCC2C1 (stereo in doubt; 14) [listing 1 of 2 here] | 0.2 | 350 |  | 
COc1cc(N)c(Cl)cc1C(=O)NC1CN2Cc3ccccc3CN2C1 | >1 |  | 10 | 
COc1cc(N)c(Cl)cc1C(=O)NC1CCN2CC[S+]([O-])CC2C1 (stereo in doubt; 22) [listing 2 of 2 here] | 1 |  |  | 
COc1cc(N)c(Cl)cc1C(=O)NC1CCN2CC[S+]([O-])CC2C1 (stereo in doubt; 21) [listing 2 of 2 here] |  |  | > 10 | 
COc1cc(N)c(Cl)cc1C(=O)NC1CCCN2CCSCC12 (stereo in doubt; 23) [listing 1 of 2 here] |  |  | 5 | 
COc1cc(N)c(Cl)cc1C(=O)NC1CCCN2CCOCC12 (stereo in doubt; 17) [listing 1 of 2 here] | >5 |  |  | 
COc1cc(N)c(Cl)cc1C(=O)NC1CCN2CCOCC2C1 (stereo in doubt; 15) [listing 2 of 2 here] |  |  | 30 | 
COc1cc(N)c(Cl)cc1C(=O)NC1CCN2CCSCC2C1 (stereo not drawn) | 1 |  | > 25 | Active
COc1cc(N)c(Cl)cc1C(=O)NC1CN2CCC(c3ccccc3)CN2C1 (stereo not drawn) | >1 |  | 5 | 
COc1cc(N)c(Cl)cc1C(=O)NC1CCN2CCOCC2C1 (stereo in doubt; 14) [listing 2 of 2 here] |  |  | 70 | 
COc1cc(N)c(Cl)cc1C(=O)NC1CCCN2CCSCC12 (stereo in doubt; 24) [listing 1 of 2 here] |  |  | 30 | 
COc1cc(N)c(Cl)cc1C(=O)NC1CCCN2CCSCC12 (stereo in doubt; 24) [listing 2 of 2 here] | 1 | 30 |  | 
COc1cc(N)c(Cl)cc1C(=O)NC1CCN2C(C)COCC2C1 (stereo not drawn) | 0.2 | 200 | 40 | 
COc1cc(N)c(Cl)cc1C(=O)NC1CCCN2CCSCC12 (stereo in doubt; 23) [listing 2 of 2 here] | >5 |  |  | 
COc1cc(N)c(Cl)cc1C(=O)NC1CCCN2CCOCC12 (stereo in doubt; 17) [listing 2 of 2 here] |  |  | 30 | 
COc1cc(N)c(Cl)cc1C(=O)NC1CCCN2CCOCC12 (stereo in doubt; 18) [listing 2 of 2 here] |  |  | > 25 | 
